# Measured values as given in US10294202B2, “Pyrrolidinones as herbicides” (FMC Corporation, priority 2013, dated 2019).
# Tests used:
# morningglory = assay: Test A pre-/postemergence herbicide test; format: in vivo, Ipomoea spp.
# Summary of the method: (§1)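 Visual 0–100 ratings (100 = complete control) made about 10 days after treatment, greenhouse-held plants compared with untreated controls. Treatments: postemergence sprays on one- to two-leaf plants (2–10 cm tall) and preemergence directed soil sprays after planting in loam–sand, chemicals formulated in non-phytotoxic solvent containing surfactant.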
# crabgrass, large = assay: Test A pre-/postemergence herbicide test; format: in vivo, Digitaria sanguinalis
# Summary of the method: as §1
# giant foxtail = assay: Test A pre-/postemergence herbicide test; format: in vivo, Setaria faberii
# Summary of the method: as §1
# velvetleaf = assay: Test A pre-/postemergence herbicide test; format: in vivo, Abutilon theophrasti
# Summary of the method: as §1
# rice = assay: Test C flooded paddy test; format: in vivo, Oryza sativa; conditions: Flood
# Summary of the method: (§2)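 Visual ratings from 0, no effect, to 100, complete control, were made against untreated controls after 13–15 greenhouse days. Compounds had gone straight into paddy water 3 cm above the soil, kept at that depth, on 2-leaf-stage plants.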
# wheat = assay: Test A pre-/postemergence herbicide test; format: in vivo, Triticum aestivum
# Summary of the method: as §1
# ducksalad = assay: Test C flooded paddy test; format: in vivo, Heteranthera limosa; conditions: Flood
# Summary of the method: as §2
# barnyardgrass [1] = assay: Test A pre-/postemergence herbicide test; format: in vivo, Echinochloa crus-galli
# Summary of the method: as §1
# corn = assay: Test A pre-/postemergence herbicide test; format: in vivo, Zea mays
# Summary of the method: as §1
# sedge, umbrella = assay: Test C flooded paddy test; format: in vivo, Cyperus difformis; conditions: Flood
# Summary of the method: as §2
# barnyardgrass [2] = assay: Test C flooded paddy test; format: in vivo, Echinochloa crus-galli; conditions: Flood
# Summary of the method: as §2
# pigweed = assay: Test A pre-/postemergence herbicide test; format: in vivo, Amaranthus retroflexus
# Summary of the method: as §1
# [3] = Postemergence, 1000 g ai/ha, 0 to 100 scale (0 no effect, 100 complete control)
# [4] = Preemergence, 1000 g ai/ha, visual rating on 0 to 100 scale (0 no effect, 100 complete control), approx. 10 days
# [5] = 31 g ai/ha, scale of 0 to 100 where 0 is no effect and 100 is complete control, 13 to 15 days
# [6] = 62 g ai/ha, scale of 0 to 100 where 0 is no effect and 100 is complete control, 13 to 15 days
# [7] = 125 g ai/ha, scale of 0 to 100 where 0 is no effect and 100 is complete control, 13 to 15 days
# [8] = Postemergence, 500 g ai/ha, 0 to 100 scale (0 no effect, 100 complete control)
# [9] = Preemergence, 125 g ai/ha, visual rating on 0 to 100 scale (0 no effect, 100 complete control)
# [10] = preemergence, 500 g ai/ha, 0 to 100 scale
# [11] = Postemergence, 125 g ai/ha, 0 to 100 scale, 0 no effect, 100 complete control
smiles,measurement,setting,value
CS(=O)(=O)c1ccccc1NC(=O)C1C(=O)NCC1c1ccc(F)c(F)c1 (racemic) [Compound 21],"Plant response rating, Morningglory",morningglory; [3],0
same,"Plant response rating, Morningglory",morningglory; [4],40
same,"Plant response rating, Crabgrass, Large","crabgrass, large; [3]",80
same,"Plant response rating, Crabgrass, Large","crabgrass, large; [4]",90
same,"Plant response rating, Foxtail, Giant",giant foxtail; [3],80
same,"Plant response rating, Foxtail, Giant",giant foxtail; [4],90
same,"Plant response rating, Velvetleaf",velvetleaf; [3],60
same,"Plant response rating, Velvetleaf",velvetleaf; [4],50
same,"Plant response rating, Rice",rice; [5],0
same,"Plant response rating, Rice",rice; [6],0
same,"Plant response rating, Rice",rice; [7],0
same,"Plant response rating, Rice","rice; 250 g ai/ha, scale 0 to 100",0
same,"Plant response rating, Wheat",wheat; [3],30
same,"Plant response rating, Wheat",wheat; [4],20
same,"Plant response rating, Ducksalad",ducksalad; [5],0
same,"Plant response rating, Ducksalad",ducksalad; [6],0
same,"Plant response rating, Ducksalad",ducksalad; [7],50
same,"Plant response rating, Ducksalad","ducksalad; 250 g ai/ha, scale 0 to 100",85
same,"Plant response rating, Barnyardgrass",barnyardgrass [1]; [3],90
same,"Plant response rating, Barnyardgrass",barnyardgrass [1]; [4],90
same,"Plant response rating, Corn",corn; [3],0
same,"Plant response rating, Corn",corn; [4],0
same,"Plant response rating, Sedge, Umbrella","sedge, umbrella; [5]",0
same,"Plant response rating, Sedge, Umbrella","sedge, umbrella; [6]",0
same,"Plant response rating, Sedge, Umbrella","sedge, umbrella; [7]",0
same,"Plant response rating, Sedge, Umbrella","sedge, umbrella; 250 g ai/ha, scale 0 to 100",0
same,"Plant response rating, Barnyardgrass",barnyardgrass [2]; [5],0
same,"Plant response rating, Barnyardgrass",barnyardgrass [2]; [6],0
same,"Plant response rating, Barnyardgrass",barnyardgrass [2]; [7],0
same,"Plant response rating, Barnyardgrass","barnyardgrass [2]; 250 g ai/ha, scale 0 to 100",0
same,"Plant response rating, Pigweed",pigweed; [4],40
O=C1NCC(c2cccc(F)c2)C1C(=O)Nc1ccccc1C(F)(F)F (racemic) [Compound 2],"Plant response rating, Morningglory",morningglory; [8],0
same,Morningglory plant response rating,morningglory; [9],0
same,"Plant response rating, Morningglory",morningglory; [10],0
same,"Plant response rating, Crabgrass, Large","crabgrass, large; [11]",50
same,"Plant response rating, Crabgrass, Large","crabgrass, large; [8]",70
same,"Crabgrass, Large plant response rating","crabgrass, large; [9]",90
same,"Plant response rating, Crabgrass, Large","crabgrass, large; [10]",90
same,"Plant response rating, Foxtail, Giant",giant foxtail; [11],30
same,"Plant response rating, Foxtail, Giant",giant foxtail; [8],60
same,"Foxtail, Giant plant response rating",giant foxtail; [9],90
same,"Plant response rating, Foxtail, Giant",giant foxtail; [10],90
same,"Plant response rating, Velvetleaf",velvetleaf; [8],0
same,Velvetleaf plant response rating,velvetleaf; [9],0
same,"Plant response rating, Velvetleaf",velvetleaf; [10],0
same,"Plant response rating, Rice",rice; [5],0
same,"Plant response rating, Rice",rice; [6],0
same,"Plant response rating, Rice",rice; [7],0
same,"Plant response rating, Rice","rice; 250 g ai/ha, scale 0 to 100",0
same,"Plant response rating, Wheat",wheat; [8],0
same,Wheat plant response rating,wheat; [9],0
same,"Plant response rating, Wheat",wheat; [10],0
same,"Plant response rating, Ducksalad",ducksalad; [5],0
same,"Plant response rating, Ducksalad",ducksalad; [6],0
same,"Plant response rating, Ducksalad",ducksalad; [7],0
same,"Plant response rating, Ducksalad","ducksalad; 250 g ai/ha, scale 0 to 100",0
same,"Plant response rating, Barnyardgrass",barnyardgrass [1]; [11],30
same,"Plant response rating, Barnyardgrass",barnyardgrass [1]; [8],60
same,Barnyardgrass plant response rating,barnyardgrass [1]; [9],30
same,"Plant response rating, Barnyardgrass","barnyardgrass [1]; preemergence, 500 g ai/ha, 0 to 100 scale (0 no effect, 100 complete control)",60
same,"Plant response rating, Corn",corn; [11],0
same,"Plant response rating, Corn",corn; [8],0
same,Corn plant response rating,corn; [9],0
same,"Plant response rating, Corn",corn; [10],0
same,"Plant response rating, Sedge, Umbrella","sedge, umbrella; [5]",0
same,"Plant response rating, Sedge, Umbrella","sedge, umbrella; [6]",0
same,"Plant response rating, Sedge, Umbrella","sedge, umbrella; [7]",0
same,"Plant response rating, Sedge, Umbrella","sedge, umbrella; 250 g ai/ha, scale 0 to 100",0
same,"Plant response rating, Barnyardgrass",barnyardgrass [2]; [5],0
same,"Plant response rating, Barnyardgrass",barnyardgrass [2]; [6],0
same,"Plant response rating, Barnyardgrass",barnyardgrass [2]; [7],0
same,"Plant response rating, Barnyardgrass","barnyardgrass [2]; 250 g ai/ha, scale 0 to 100",0
same,"Plant response rating, Pigweed",pigweed; [8],0
same,Pigweed plant response rating,pigweed; [9],0
same,"Plant response rating, Pigweed",pigweed; [10],0
